pIC50: −log10 of the molar value. Several values for one entry are separate records, joined by “and”; a condition that tells them apart may be missing. Equal entries are not always repeated. Where two headings read alike, the source gives them in different places.
Tests used:
[1] = biological target: recombinant USP30 (amino acids 57-517 of the human sequence) (Homo sapiens (Human), UniProt Q70CQ3); assay: In vitro USP30 biochemical assay (Ubiquitin-Rhodamine)
[2] = tested on: differentiated RenCell VM; assay: In-cell Tom20 loss assay; format: cell-based; conditions: 20 h after compound addition
Procedure: To evaluate Tom20 loss following treatment with compounds and/or antimycin/oligomycin, a96-well plate assay was performed on differentiated RenCell VM. These were seeded into laminin-coated 96-well plates at 5000 cells/well in normal growth medium (ReNcell NSC maintenance medium+20 ng/ml FDF-2 and 20 ng/ml EGF). After 3 days, growth medium was replaced with differentiation medium (ReNCell NSC medium+0.1 mM dibutyryl cAMP and 2 ng/ml GDNF). On days 1 and 4 following addition of differentiation medium, the media was removed and replaced with fresh differentiation medium. On the 7th day compounds or DMSO were added, and 1 hour later, some wells also received additions of oligomycin (1 uM and antimycin (1 uM). 20 h after compound addition, cells were fixed by adding formaldehyde to a final concentration of […], incubated 20 minutes at room temperature, then washed with PBS. Blocking buffer (3% bovine serum albumin, 2% fetal bovine serum, 0.2% Triton X100 in PBS) was added to all wells for two hours, then removed and replaced with blocking buffer containing antibody against Tom20 overnight. After washing with PBS, secondary antibody (Donkey anti-mouse conjugated to Cy3) was added along with DAPI to mark nuclei, and incubated two hours. After again washing with PBS, cells were imaged using GE INCell 6000 at 40× and quantified using HCA-based quantification algorithm of fluorescence density×area normalized to the number of nuclei.

USP30 [3] = biological target: T1, USP30 (Homo sapiens (Human), UniProt Q70CQ3); assay: Dundee MALDI-TOF mass spectrometry assay (IC50); format: biochemical; conditions: USP30 25 ng/μl, K48-linked diubiquitin 5.6 μM
T1 sequence (Q70CQ3 whole entry): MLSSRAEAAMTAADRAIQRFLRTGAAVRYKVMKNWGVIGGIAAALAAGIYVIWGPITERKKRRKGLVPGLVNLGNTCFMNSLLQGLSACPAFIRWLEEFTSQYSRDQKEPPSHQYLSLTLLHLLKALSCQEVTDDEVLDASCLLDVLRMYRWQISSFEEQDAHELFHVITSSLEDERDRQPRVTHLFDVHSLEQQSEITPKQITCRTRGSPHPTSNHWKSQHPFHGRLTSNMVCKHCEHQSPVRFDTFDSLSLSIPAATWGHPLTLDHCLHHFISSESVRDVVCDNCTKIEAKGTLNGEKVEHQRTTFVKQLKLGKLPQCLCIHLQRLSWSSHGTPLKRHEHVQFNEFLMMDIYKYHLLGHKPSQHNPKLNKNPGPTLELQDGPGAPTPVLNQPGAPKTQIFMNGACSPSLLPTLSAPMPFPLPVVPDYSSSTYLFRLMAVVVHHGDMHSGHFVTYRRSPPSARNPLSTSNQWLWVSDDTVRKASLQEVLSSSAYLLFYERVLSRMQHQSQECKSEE
Method in brief: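 USP30 (25 ng/μl) preincubated with compound 5 min at RT in Tris/BSA/DTT buffer, then K48-linked diubiquitin (5.6 μM) added for 45 min at RT. Stopped with 2% TFA; cleavage quantified by MALDI-TOF mass spectrometry to give IC50.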

USP30 [4] = biological target: T1, USP30; assay: Dundee MALDI-TOF mass spectrometry assay (% DUB activity remaining at 1 μM); format: biochemical; conditions: % DUB activity remaining at compound concentration of 1 μM; avg; read-out: Dundee % Activity at 1 μM (avg in vitro MS assay)
Procedure: Compounds were tested in a MALDI-TOF assay based on the paper by Ritorto et al. (Ritorto et al. Screening of DUB activity and specificity by MALDI-TOF mass spectrometry. Nat. Commun. 5:4763).
USP30 (25 ng/μl) tested against K48-linked diubiquitin (5.6 μM). USP30 was diluted in a buffer containing 40 mM Tris, 0.01% BSA, 1 mM DTT and K48 in 40 mM Tris, 0.01% BSA.
The compounds were pre-incubated with the USP30 for 5 mins at room temp before the K48 dimer addition. The assay mixture was then incubated for 45 mins at room temp. The assay was stopped by the addition of TFA to a final concentration of 2% (v/v).
Acidified samples of the DUB assays were mixed with 0.5 mM 15N-ubiquitin and then with one part of 2% (v/v) TFA and one part of 2,5 DHAP matrix solution (7.6 mg of 2,5 DHAP in […] ethanol and […] of an aqueous 12 mg ml 1 diammonium hydrogen citrate). Then 250 nl of these solutions were spotted onto an MTP AnchorChip 1,536 TF and this is analysed on the Bruker rapifleX MALDI-TOF.
Table 22 presents the Dundee MALDI-TOF values expressed as % DUB activity remaining at a compound concentration of 1 μM.

[5] = USP30 IC50 μM (avg), Ubiquitin-Rhodamine substrate 25 nM, 1.5 nM recombinant USP30
[6] = read-out: USP30 IC50 μM (avg), Ubiquitin-Rhodamine substrate 25 nM, 1.5 nM recombinant USP30
[7] = avg, read-out: Dundee IC50 μM (avg in vitro MS assay)

Sequence of recombinant USP30 (amino acids 57-517 of the human sequence) (Q70CQ3 57-517): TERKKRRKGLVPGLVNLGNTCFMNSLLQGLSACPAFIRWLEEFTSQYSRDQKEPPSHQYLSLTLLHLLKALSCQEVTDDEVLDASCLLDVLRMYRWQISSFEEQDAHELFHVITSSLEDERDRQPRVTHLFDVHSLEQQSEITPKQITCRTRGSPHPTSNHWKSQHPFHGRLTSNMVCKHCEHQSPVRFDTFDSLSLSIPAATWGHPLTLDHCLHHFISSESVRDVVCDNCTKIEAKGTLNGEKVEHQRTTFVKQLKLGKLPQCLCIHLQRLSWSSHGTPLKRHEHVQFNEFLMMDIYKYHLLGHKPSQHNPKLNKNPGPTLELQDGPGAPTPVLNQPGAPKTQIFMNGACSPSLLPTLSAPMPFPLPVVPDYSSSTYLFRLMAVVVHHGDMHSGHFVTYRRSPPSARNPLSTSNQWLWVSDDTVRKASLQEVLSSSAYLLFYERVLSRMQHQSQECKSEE

Row | Compound | IC50 [1, 5] [µM] | IC50 [1, 6] [µM] | pIC50 [2] | IC50 (USP30 [3]; [7]) | IC50 (USP30 [3]; Dundee IC50 μM (avg in vitro MS assay)) [µM] | activity at 1 µM (USP30 [4]) [%]
1 | O=C(N[C@@H](Cc1ccccc1)C(=O)Nc1ccc(S(=O)(=O)NC23CC(C2)C3)cc1)c1ccc(F)cc1 [Compound I-11, (S)-N-(1-(4-(N-Bicyclo[1.1.1]pentan-1-ylsulfamoyl)phenylamino)-1-oxo-3-phenylpropan-2-yl)-4-fluorobenzamide] | 0.05 to 1 | 0.05 to 1 | ≥ 6.30 | < 0.05 µM and 0.05 to 1 µM |  | 
2 | O=C(N[C@@H](Cc1ccccc1)C(=O)Nc1ccc(S(=O)(=O)NC23CC(C2)C3)nc1)c1ccc(F)cc1 [Compound I-104, (S)-N-(1-(6-(N-bicyclo[1.1.1]pentan-1-ylsulfamoyl)pyridin-3-ylamino)-1-oxo-3-phenylpropan-2-yl)-4-fluorobenzamide] | 0.05 to 1 |  | ≥ 6.30 | < 0.05 µM |  | 
3 | O=C(N[C@@H](Cc1ccccc1)C(=O)Nc1ccc(S(=O)(=O)NC2CCOCC2)nc1)c1ccc(F)cc1 [Compound I-107, (S)-4-fluoro-N-(1-oxo-3-phenyl-1-(6-(N-(tetrahydro-2H-pyran-4-yl)sulfamoyl)pyridin-3-ylamino)propan-2-yl)benzamide] |  | < 0.05 | 6.00 to 6.30 | < 0.05 µM |  | 
4 | CC(C)(C)NS(=O)(=O)c1ccc(NC(=O)C2Cc3ccccc3CN2C(=O)c2ccc(F)cc2)cc1 (stereo not shown) [Compound I-22, N-(4-(N-tert-Butylsulfamoyl)phenyl)-2-(4-fluorobenzoyl)-1,2,3,4-tetrahydroisoquinoline-3-carboxamide] | 1 to 10 |  | < 5.00 |  | 0.05 to 1 | 0 to 25
5 | CCNS(=O)(=O)c1ccc(NC(=O)[C@H](Cc2ccccc2)N(C)C(=O)c2ccc(F)cc2)cc1 [Compound I-51, (S)-N-(1-(4-(N-ethylsulfamoyl)phenylamino)-1-oxo-3-phenylpropan-2-yl)-4-fluoro-N-methylbenzamide] | 1 to 10 |  |  | 1 to 10 µM |  | > 75
6 | CC(C)(CO)NS(=O)(=O)c1ccc(NC(=O)[C@H](Cc2ccccc2)NC(=O)c2ccc(F)cc2)cc1 [Compound I-137, (S)-4-fluoro-N-(1-(4-(N-(1-hydroxy-2-methylpropan-2-yl)sulfamoyl)phenylamino)-1-oxo-3-phenylpropan-2-yl)benzamide] |  | < 0.05 | ≥ 6.30 | < 0.05 µM |  | 
7 | CC(C)(C)NS(=O)(=O)c1ccc(NC[C@H](O)[C@H](Cc2ccccc2)NC(=O)c2ccc(F)cc2)cc1 [Compound I-41, N-((2S,3S)-4-(4-(N-tert-butylsulfamoyl)phenylamino)-3-hydroxy-1-phenylbutan-2-yl)-4-fluorobenzamide] | 1 to 10 |  |  | 1 to 10 µM |  | 25 to 50
8 | O=C(N[C@@H](Cc1ccccc1)C(=O)Nc1cccc2c(S(=O)(=O)NC3COC3)cccc12)C1CCCCC1 [Compound I-130, (S)-N-(1-(5-(N-oxetan-3-ylsulfamoyl)naphthalen-1-ylamino)-1-oxo-3-phenylpropan-2-yl)cyclohexanecarboxamide] | 0.05 to 1 |  | < 5.00 | 0.05 to 1 µM |  | 
9 | CC(C)(C)NS(=O)(=O)c1ccc(NC(=O)C2Cc3cnccc3CN2C(=O)c2ccc(F)cc2)cc1 (stereo not shown) [Compound I-50, N-(4-(N-tert-butylsulfamoyl)phenyl)-2-(4-fluorobenzoyl)-1,2,3,4-tetrahydro-2,6-naphthyridine-3-carboxamide] | 1 to 10 |  |  | 1 to 10 µM |  | 50 to 75
10 | Cc1cc(S(=O)(=O)NC(C)(C)C)ccc1NC(=O)[C@H](Cc1ccccc1)NC(=O)c1ccc(F)cc1 [Compound I-93, (S)-N-(1-(4-(N-tert-butylsulfamoyl)-2-methylphenylamino)-1-oxo-3-phenylpropan-2-yl)-4-fluorobenzamide] |  | < 0.05 | 6.00 to 6.30 | 0.05 to 1 µM |  | 
11 | O=C(N[C@@H](Cc1ccccc1)C(=O)Nc1ccc(S(=O)(=O)NC2CCCC2)cc1)c1cccnc1 [Compound I-80, (S)-N-(1-(4-(N-cyclopentylsulfamoyl)phenylamino)-1-oxo-3-phenylpropan-2-yl)nicotinamide] | 0.05 to 1 |  | 5.00 to 6.00 | 0.05 to 1 µM |  | 
12 | O=C(N[C@@H](Cc1ccccc1)C(=O)Nc1ccc(S(=O)(=O)N[C@@H]2CCOC2)cc1)c1ccc(F)cc1 [Compound I-175, 4-fluoro-N-((S)-1-oxo-3-phenyl-1-(4-(N-((R)-tetrahydrofuran-3-yl)sulfamoyl)phenylamino)propan-2-yl)benzamide] |  | < 0.05 | ≥ 6.30 |  |  | 
13 | O=C(N[C@@H](Cc1ccccc1)C(=O)Nc1ccc(S(=O)(=O)NC2CCOCC2)cc1)c1ccc(F)cc1 [Compound I-34, (S)-4-fluoro-N-(1-oxo-3-phenyl-1-(4-(N-(tetrahydro-2H-pyran-4-yl)sulfamoyl)phenylamino)propan-2-yl)benzamide] |  | < 0.05 | ≥ 6.30 | < 0.05 µM |  | 
